Measurements published in patent US7838530B2, “Quinazoline derivatives as antiproliferative agents” (AstraZeneca AB, priority 2003, dated 2010).

Columns and labels:
[1] = target: T1, EGFR tyrosine kinase enzyme (Homo sapiens, UniProt P00533); experiment: Protein tyrosine kinase phosphorylation assay, Test (a); assay type: biochemical; settings: ATP at Km concentration; read-out: IC50 (nM) Test (a) (inhibition of tyrosine kinase protein phosphorylation)
T1 construct: Recombinant intracellular fragments of EGFR, erbB2 and erbB4; made in house; host or cells: baculovirus/Sf21 insect cells
Procedure: This test measures the ability of a test compound to inhibit the phosphorylation of a tyrosine containing polypeptide substrate by EGFR tyrosine kinase enzyme.
Recombinant intracellular fragments of EGFR, erbB2 and erbB4 (accession numbers X00588, X03363 and L07868 respectively) were cloned and expressed in the baculovirus/Sf21 system. Lysates were prepared from these cells by treatment with ice-cold lysis buffer (20 mM N-2-hydroxyethylpiperizine-N′-2-ethanesulfonic acid (HEPES) pH7.5, 150 mM NaCl, 10% glycerol, 1% Triton X-100, 1.5 mM MgCl2, 1 mM ethylene glycol-bis(β-aminoethyl ether) N′,N′,N′,N′-tetraacetic acid (EGTA), plus protease inhibitors and then cleared by centrifugation.
Constitutive kinase activity of the recombinant protein was determined by its ability to phosphorylate a synthetic peptide (made up of a random co-polymer of Glutamic Acid, Alanine and Tyrosine in the ratio of 6:3:1). Specifically, Maxisorb™ 96-well immunoplates were coated with synthetic peptide (0.2 μg of peptide in a 100 μl phosphate buffered saline (PBS) solution and incubated at 4° C. overnight). Plates were washed in PBS-T (phosphate buffered saline with 0.5% Tween 20) then in 50 mM HEPES pH 7.4 at room temperature to remove any excess unbound synthetic peptide. EGFR, ErbB2 or ErbB4 tyrosine kinase activity was assessed by incubation in peptide coated plates for 20 minutes at 22° C. in 100 mM HEPES pH 7.4, adenosine trisphosphate (ATP) at Km concentration for the respective enzyme, 10 mM MnCl2, 0.1 mM Na3VO4, 0.2 mM DL-dithiothreitol (DTT), 0.1% Triton X-100 with test compound in DMSO (final concentration of 2.5%). Reactions were terminated by the removal of the liquid components of the assay followed by washing of the plates with PBS-T.
The immobilised phospho-peptide product of the reaction was detected by immunological methods. Firstly, plates were incubated for 90 minutes at room temperature with anti-phosphotyrosine primary antibodies that were raised in the mouse (4G10 from Upstate Biotechnology). Following extensive washing, plates were treated with Horseradish Peroxidase ([…]) conjugated sheep anti-mouse secondary antibody (NXA931 from Amersham) for 60 minutes at room temperature. After further washing, HRP activity in each well of the plate was measured colorimetrically using 22′-Azino-di-[3-ethylbenzthiazoline sulfonate (6)] diammonium salt crystals (ABTS™ from Roche) as a substrate.
Quantification of colour development and thus enzyme activity was achieved by the measurement of absorbance at 405 nm on a Molecular Devices ThermoMax microplate reader. Kinase inhibition for a given compound was expressed as an IC50 value. This was determined by calculation of the concentration of compound that was required to give 50% inhibition of phosphorylation in this assay. The range of phosphorylation was calculated from the positive (vehicle plus ATP) and negative (vehicle minus ATP) control values.

[2] = system: KB cells; experiment: EGFR driven KB cell proliferation assay, Test (b); assay type: cell-based; settings: Homo sapiens, 96 h, EGF 1 ng/ml, incubation for 4 days, MTT
Procedure: This assay measures the ability of a test compound to inhibit the proliferation of KB cells (human naso-pharangeal carcinoma obtained from the American Type Culture Collection (ATCC).
KB cells (human naso-pharangeal carcinoma obtained from the ATCC were cultured in Dulbecco's modified Eagle's medium (DMEM) containing 10% foetal calf serum, 2 mM glutamine and non-essential amino acids at 37° C. in a 7.5% CO2 air incubator. Cells were harvested from the stock flasks using Trypsin/ethylaminediaminetetraacetic acid (EDTA). Cell density was measured using a haemocytometer and viability was calculated using trypan blue solution before being seeded at a density of 1.25×10^3 cells per well of a 96 well plate in DMEM containing 2.5% charcoal stripped serum, 1 mM glutamine and non-essential amino acids at 37° C. in 7.5% CO2 and allowed to settle for 4 hours.
Following adhesion to the plate, the cells are treated with or without EGF (final concentration of 1 ng/ml) and with or without compound at a range of concentrations in dimethylsulfoxide (DMSO) (0.1% final) before incubation for 4 days. Following the incubation period, cell numbers were determined by addition of 50 μl of 3-(4,5-Dimethylthiazol-2-yl)-2,5-diphenyltetrazolium bromide (MTT) (stock 5 mg/ml) for 2 hours. MTT solution was then tipped off, the plate gently tapped dry and the cells dissolved upon the addition of 100 μl of DMSO.
Absorbance of the solubilised cells was read at 540 nm using a Molecular Devices ThermoMax microplate reader. Inhibition of proliferation was expressed as an IC50 value. This was determined by calculation of the concentration of compound that was required to give 50% inhibition of proliferation. The range of proliferation was calculated from the positive (vehicle plus EGF) and negative (vehicle minus EGF) control values.

T1 sequence (P00533 669-1210 limits assumed): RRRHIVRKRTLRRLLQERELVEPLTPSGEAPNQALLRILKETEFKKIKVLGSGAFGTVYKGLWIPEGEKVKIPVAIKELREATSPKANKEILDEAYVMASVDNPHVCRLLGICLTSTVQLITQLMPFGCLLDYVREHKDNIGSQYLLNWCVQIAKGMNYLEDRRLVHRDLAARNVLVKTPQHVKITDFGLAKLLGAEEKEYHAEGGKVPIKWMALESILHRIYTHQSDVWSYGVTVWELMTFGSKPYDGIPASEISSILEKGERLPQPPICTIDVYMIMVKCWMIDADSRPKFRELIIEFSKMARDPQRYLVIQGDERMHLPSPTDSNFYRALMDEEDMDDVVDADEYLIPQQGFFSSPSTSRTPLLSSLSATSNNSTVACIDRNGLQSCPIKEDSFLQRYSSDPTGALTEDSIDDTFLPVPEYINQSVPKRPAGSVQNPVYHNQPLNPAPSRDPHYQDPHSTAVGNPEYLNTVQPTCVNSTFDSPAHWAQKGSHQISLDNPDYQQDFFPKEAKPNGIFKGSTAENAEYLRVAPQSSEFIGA

| IC50 [1] [nM] | IC50 [2] [nM] | SMILES |
| --- | --- | --- |
| < 1 | 17 | COc1cc2ncnc(Nc3cccc(Cl)c3F)c2cc1OC1CCN(C(=O)c2ccno2)CC1 [Compound 1, N-(3-chloro-2-fluorophenyl)-6-{[1-(isoxazol-5-ylcarbonyl)piperidin-4-yl]oxy}-7-methoxyquinazolin-4-amine] |
| 15 | 47 | COc1cc2c(Nc3cccc(Cl)c3F)ncnc2cc1OC1CCN(C(=O)Cc2cc(C)no2)CC1 [Compound 33, N-(3-chloro-2-fluorophenyl)-6-methoxy-7-({1-[(3-methylisoxazol-5-yl)acetyl]piperidin-4-yl}oxy)quinazolin-4-amine] |
| < 1 | 30 | COc1cc2ncnc(Nc3cccc(Cl)c3F)c2cc1O[C@@H]1CCCN(C(=O)Cc2cccs2)C1 [Compound 60, N-(3-chloro-2-fluorophenyl)-7-methoxy-6-{[(3R)-1-(2-thienylacetyl)piperidin-3-yl]oxy}quinazolin-4-amine] |
| < 1 | 17 | COc1cc2ncnc(Nc3cccc(Cl)c3F)c2cc1OC1CCN(C(=O)Nc2c(C)noc2C)CC1 [Compound 96, 4-({4-[(3-Chloro-2-fluorophenyl)amino]-7-methoxyquinazolin-6-yl}oxy)-N-(3,5-dimethylisoxazol-4-yl)piperidine-1-carboxamide] |

| SMILES | IC50 [1] [nM] | IC50 [2] [nM] |
| --- | --- | --- |
| COc1cc2ncnc(Nc3cccc(Cl)c3F)c2cc1OC1CCN(C(=O)c2ccccn2)CC1 [Compound 10, N-(3-chloro-2-fluorophenyl)-7-methoxy-6-{[1-(pyridin-2-ylcarbonyl)piperidin-4-yl]oxy}quinazolin-4-amine] | 14 | 16 |
| COc1cc2c(Nc3cccc(Cl)c3F)ncnc2cc1OC1CCN(C(=O)c2cccnc2)CC1 [Compound 34, N-(3-chloro-2-fluorophenyl)-7-{[1-(pyridin-3-ylcarbonyl)piperidin-4-yl]oxy}-6-methoxyquinazolin-4-amine] | 43 | 87 |
